Results published in patent US9101573B2, “Lanthionine synthetase component C-like proteins as molecular targets for preventing and treating diseases and disorders” (VIRGINIA TECH INTELLECTUAL PROPERTIES, INC., priority 2010, dated 2015).

Columns and labels:
[1] = system: mouse model of DSS-induced colitis; assay: DSS-induced colitis (experimental IBD) in C57BL/6J wild-type mice; assay type: in vivo
Protocol: Six to eight week old C57BL/6J wild-type mice (n=38) were housed at the animal facilities at Virginia Tech. in a room maintained at 75° F., with a 12:12 h light-dark cycle starting from 6:00 AM. Mice were randomly divided into four groups: a control group including 8 mice and the other three NSC61610 treatment groups containing 10 mice each. The three treatment groups received 0.5, 10 or 20 mg/kg NSC61610 by orogastric gavage for 7 days. All the mice were challenged with drinking water containing 2.5% DSS, 36,000-44,000 molecular weight (ICN Biomedicals, Aurora, Ohio) for 7 days. Mice were weighed on a daily basis and examined for clinical signs of disease associated with colitis (i.e., perianal soiling, rectal bleeding, diarrhea, and piloerection). For the DSS challenge, the disease activity indices and rectal bleeding scores were calculated using a modification of a previously published compounded clinical score. Briefly, disease activity index consisted of a scoring for diarrhea and lethargy (0-3), whereas rectal bleeding consisted of a visual observation of blood in feces and the perianal area (0-4). Mice in the DSS study were euthanized on day 7 of the DSS challenge. On day 7, mice were euthanized by CO2 narcosis followed by secondary thoracotomy and blood was withdrawn from the heart. Colon, spleen, and MLN were scored based on size and macroscopic inflammatory lesions (0-3), excised, and then crushed to produce single-cell suspensions for flow cytometry.
Colonic sections were fixed in 10% buffered neutral formalin, later embedded in paraffin, and then sectioned ([…]) and stained with H&E stain for histological examination. Colons were blindly graded with a compounded histological score including the extent of (1) leukocyte infiltration. (2) mucosal thickening, and (3) epithelial cell erosion. The sections were graded with a score of 0-4 for each of the previous categories and data were analyzed as a normalized compounded score.
Total RNA was isolated from colons using the RNA isolation Minikit (Qiagen) according to the manufacturer's instructions. Total RNA ([…]) was used to generate complementary DNA (cDNA) template using the iScript cDNA Synthesis Kit (Bio-Rad, Hercules, Calif.). The total reaction volume was 20 μL with the reaction incubated as follows in an MJ MiniCycler: 5 min at 25° C., 30 min at […], 5 min at 85° C., and hold at 4° C. PCR was performed on the cDNA using Taq DNA polymerase (Invitrogen, Carlsbad, Calif.) and using previously described conditions. Each gene amplicon was purified with the MiniElute PCR Purification Kit (Qiagen) and quantitated on an agarose gel by using a DNA mass ladder (Promega). These purified amplicons were used to optimize real-time (RT)-PCR conditions and to generate standard curves. Primer concentrations and annealing temperatures were optimized for the iCycler iQ system (Bio-Rad) for each set of primers using the system's gradient protocol. PCR efficiencies were maintained between 92 and 105% and correlation coefficients above 0.98 for each primer set during optimization and also during the real-time PCR of sample DNA.
Complementary DNA (cDNA) concentrations for genes of interest were examined by real-time quantitative PCR using an iCycler IQ System and the iQ SYBR green supermix (Bio-Rad). A standard curve was generated for each gene using 10-fold dilutions of purified amplicons starting at 5 pg of cDNA and used later to calculate the starting amount of target cDNA in the unknown samples. SYBR green I is a general double-stranded DNA intercalating dye and may therefore detect non-specific products and primer/dimers in addition to the amplicon of interest. In order to determine the number of products synthesized during the real-time PCR, a melting curve analysis was performed on each product. Real-time PCR was used to measure the starting amount of nucleic acid of each unknown sample of cDNA on the same 96-well plate. […]

PPAR γ = PPAR γ reporter activity assay on 3T3-L1 pre-adipocytes; assay type: cell-based; conditions: 2.5 μM, 24 hours, vs untreated cells
Protocol: 3T3-L1 cells were plated into white, opaque 96-well plates (BD) 24 hours before transfection and grown in DMEM containing 10% fetal bovine serum (FBS) until 70% confluence. Cells were then co-transfected with 0.2 μg pCMX.PPAR γ expression plasmid expression plasmid, 0.2 μg pTK.PPRE3x luciferase reporter plasmid driven by the PPRE-containing Acyl-CoA oxidase promoter and 0.2 μg pRL reporter control using the Lipofectamine 2000 transfection reagent (Invitrogen). After 48 hr incubation at 37° C., cells were then treated in replicates of 8 with NSC61610 2.5 μM or DMSO control and incubated for 24 hr at 37° C. After incubation, cells were harvested in reporter lysis reagent and luciferase activity was determined using the Dual Luciferase II reporter assay system (Promega, Madison, Wis.) in Modulus 96-well luminometer (Turner Biosystems, Sunnyvale, Calif.). All values were normalized to control wells to calculate relative luciferase activity.

[2] = system: mouse model of DSS-induced colitis, PPAR γ fl/fl Cre−, CD4-Cre+ and Lysozyme M-Cre+ mice; assay: DSS colitis in tissue-specific PPAR γ null mice; assay type: in vivo
Protocol: PPAR γ fl/fl MMTV-Cre− (n=20), tissue-specific PPAR γ fl/fl CD4-Cre+ ([…]) PPAR γ null mice (n=20) and tissue-specific PPAR γ fl/fl Lsozyme M-Cre+ (macrophage-deficient) PPAR γ null mice (n=20) littermates in a C57BL/6J background were generated by using the Cre-lox recombination system as previously described. The mice were housed at the animal facilities at Virginia Tech. in a room maintained at 75° F., with a 12:12 h light-dark cycle starting from 6:00 AM. In each group, 20 mice were randomly divided into two groups: a control group including 10 mice and a NSC61610 treatment groups containing 10 mice respectively. The three treatment groups received 20 mg/kg NSC61610 by orogastric gavage for 6 days. All the mice (n=60) were challenged with drinking water containing 2.5% DSS, 36,000-44,000 molecular weight (ICN Biomedicals, Aurora, Ohio) for 6 days. Mice were weighed on a daily basis and examined for clinical signs of disease associated with colitis (i.e., perianal soiling, rectal bleeding, diarrhea, and piloerection). For the DSS challenge, the disease activity indices and rectal bleeding scores were calculated using a modification of a previously published compounded clinical score. Briefly, disease activity index consisted of a scoring for diarrhea and lethargy (0-3), whereas rectal bleeding consisted of a visual observation of blood in feces and the perianal area (0-4). Mice in the DSS study were euthanized on day 6 of the DSS challenge. On day 6, mice were euthanized by CO2 narcosis followed by secondary thoracotomy and blood was withdrawn from the heart. Colon, spleen, and MLN were scored based on size and macroscopic inflammatory lesions (0-3), excised, and then crushed to produce single-cell suspensions for flow cytometry.

[3] = system: pandemic 2009 H1N1 influenza A California/09 virus; assay: Pandemic H1N1 influenza virus infection in mice; assay type: in vivo
LANCL2 = target: T1, LANCL2 (Mus musculus, UniProt Q9JJK2); assay: Western blot binding assay between ABA and LANCL2; conditions: RAW 264.7 macrophages treated with ABA for 20 minutes; re-probing western blot; control without ABA showed no band
T1 construct: Proteins were extracted from Raw 264.7 Macrophage using Radio-Immunoprecipitation Assay buffer; endogenous in cells; host or cells: RAW 264.7 macrophages
T1 sequence (Q9JJK2 1-450): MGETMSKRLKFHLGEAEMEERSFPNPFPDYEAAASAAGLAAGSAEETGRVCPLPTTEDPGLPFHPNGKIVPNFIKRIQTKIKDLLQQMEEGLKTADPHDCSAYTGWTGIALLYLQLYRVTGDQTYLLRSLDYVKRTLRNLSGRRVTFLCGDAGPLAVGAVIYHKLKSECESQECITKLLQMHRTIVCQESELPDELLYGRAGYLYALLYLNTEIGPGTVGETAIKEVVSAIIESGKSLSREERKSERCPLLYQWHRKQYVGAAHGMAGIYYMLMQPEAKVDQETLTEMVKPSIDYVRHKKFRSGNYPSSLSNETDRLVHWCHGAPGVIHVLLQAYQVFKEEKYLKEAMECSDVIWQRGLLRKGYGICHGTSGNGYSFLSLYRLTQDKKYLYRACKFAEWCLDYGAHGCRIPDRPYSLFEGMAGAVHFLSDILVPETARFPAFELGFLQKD
Protocol: RAW 264.7 macrophages were cultured with DMEM (Mediatech, Manassas, Va.) containing 10% fetal bovine serum (FBS) in two flasks and grown until 60-70% confluence. RAW 264.7 macrophages in one flask were treated with abscisic acid (SIGMA-ALDRICH) for 20 minutes. RAW 264.7 macrophages in the other flask without ABA were used as control. Proteins were extracted from Raw 264.7 Macrophage using Radio-Immunoprecipitation Assay buffer (RIPA) (SIGMA-ALDRICH) with inhibitors. 10% SDS-PAGE was applied to analyze the proteins in Bio-Rad mini-gel box running condition. For Western blotting, proteins were electrotransferred to nitrocellulose by standard methods along with the Presicion Plus Kaleidoscope Standard (BIO-RAD). Filters were blocked by 5% BSA in TBS-Tween for 1 hour, followed by incubation with rabbit anti-LANCL2 primary antibody (SIGMA-ALDRICH) in TBS-Tween for 6 hours at room temperature. Goat anti-rabbit horseradish peroxidase-conjugated secondary antibodie (Santa Cruz Biotechnology) was used 1:2,000 in TBS-Tween, and protein bands were detected with Immun-Star™ chemiluminescent substrate (BIO-RAD). […] Donkey anti-rat horseradish peroxidase-conjugated secondary antibodie (Santa Cruz Biotechnology) was used 1:2,000 in TBS-Tween, and protein bands were detected with Immun-Star™ chemiluminescent substrate (BIO-RAD).

[4] = target: T2, ligand-binding domain (LBD) of PPAR γ (Homo sapiens, UniProt P37231); assay: Binding of ABA to PPAR γ LBD (unpublished data)
T2 sequence (P37231 238-503 limits assumed): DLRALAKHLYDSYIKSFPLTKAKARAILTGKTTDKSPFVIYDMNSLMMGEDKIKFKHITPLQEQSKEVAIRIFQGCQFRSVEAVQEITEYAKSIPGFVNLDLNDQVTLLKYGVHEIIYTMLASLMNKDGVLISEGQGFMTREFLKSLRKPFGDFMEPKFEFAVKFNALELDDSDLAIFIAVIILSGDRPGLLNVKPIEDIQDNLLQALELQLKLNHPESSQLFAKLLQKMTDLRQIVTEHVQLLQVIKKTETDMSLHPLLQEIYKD

[5] = 0.5, 10 and 20 mg/kg, day 7 of DSS
[6] = highest concentration, flow cytometry

## O=C(Nc1cccc(-c2nc3ccccc3[nH]2)c1)c1ccc(C(=O)Nc2cccc(-c3nc4ccccc4[nH]3)c2)cc1 [NSC61610, 1-N,4-N-bis[3-(1H-benzimidazol-2-yl)phenyl]benzene-1,4-dicarboxamide]
[1]; 0.5, 10 and 20 mg/kg BW orogastric gavage, 7 days, 2.5% DSS, vs untreated control mice
  disease activity index (DAI): significantly reduced
[1]; [5]
  gross inflammation in MLN: significantly reduced
  gross inflammation in colon: significantly reduced
  gross inflammation in spleen: significantly reduced
[1]; flow cytometry
  numbers of mesenteric lymph node (MLN) Treg: No effect
  percentage of F4/80+CD11b+ macrophages in the colonic lamina propria: reduced
  percentage of Treg cells in blood: significantly increased
  percentage of Treg cells in colon: significantly increased
  percentage of Treg cells in spleen: significantly increased
[1]; [6]
  percentage of CD4+ IL10+ T cells in MLN: significantly increased
  percentage of CD4+ IL10+ T cells in blood: significantly increased
  percentage of CD4+ IL10+ T cells in colon: significantly increased
  percentage of CD4+ IL10+ T cells in spleen: significantly increased
[1]; maximum dose 20 mg/kg
  PPAR γ gene expression in colon: enhanced PPAR γ gene expression significantly
[1]; mice with DSS colitis
  epithelial erosion (colon histology): significantly reduced
  leukocyte infiltration (colon histology): significantly reduced
  mucosal thickening (colon histology): significantly reduced
[1]; real-time quantitative PCR
  colonic expression of IL-6: significantly lowered
  colonic expression of MCP-1: significantly lowered
  colonic expression of TNF-α: significantly lowered
[1]; real-time quantitative PCR, vs control mice
  PPAR γ gene expression in colon: increased
PPAR γ
  PPAR γ expression (dual luciferase reporter): significantly elevated
[2]; 20 mg/kg BW for 6 days during DSS challenge, vs untreated control mice
  disease activity index: significantly reduced
[2]; PPAR γ-expressing mice with DSS colitis, 20 mg/kg
  macroscopic inflammatory lesions: significantly reduced
[2]; T cell-specific PPAR γ null mice with DSS colitis, 20 mg/kg
  macroscopic inflammatory lesions: significantly reduced
[2]; macrophage-specific PPAR γ null mice, 20 mg/kg
  effect on IBD in MLNs and spleens: abrogated
[3]; day 13 post-infection, irrespective of genotype
  antigen-specific proliferation of splenocytes stimulated ex vivo with live virus: higher
[3]; infected mice, 20 mg/kg
  extent of lung congestion and hyperemia (macroscopic and histological score): reduced
[3]; infected mice, 20 mg/kg orogastric gavage daily, vs untreated infected mice
  influenza-related weight loss: lower weight loss
[3]; infected treated mice, by day 13
  body weight: began to gain weight

## CC1=CC(=O)CC(C)(C)[C@@]1(O)/C=C/C(C)=C\C(=O)O [abscisic acid, [S-(Z,E)]-5-(1-Hydroxy-2,6,6-trimethyl-4-oxo-2-cyclohexen-1-yl)-3-methyl-2,4-pentanedienoic acid]
LANCL2
  band with anti-ABA antibody at the LANCL2 location on the membrane: clear band
[4]
  direct binding to the LBD of PPAR γ: does not bind directly
